Test results: publication PMC7240875 (Integrative Cancer Therapies, 2018)

Key:
Format in all cases: cell-based
[1] = target: T1, NAD(P)H:quinone oxidoreductase-1 (NQO1) (Homo sapiens, UniProt P15559); assay: NQO1 activity; conditions: KKU100, read-out: % inhibition at 4.55 μM
[2] = target: T1, NAD(P)H:quinone oxidoreductase-1 (NQO1); assay: single-concentration NQO1 activity screen; conditions: read-out: % inhibition at 4.55 μM
[3] = target: T1, NAD(P)H:quinone oxidoreductase-1 (NQO1); assay: NQO1 activity; conditions: KKU100, read-out: % inhibition at 4.55 μM; remark: listed apart in the source

T1 sequence (P15559 whole entry): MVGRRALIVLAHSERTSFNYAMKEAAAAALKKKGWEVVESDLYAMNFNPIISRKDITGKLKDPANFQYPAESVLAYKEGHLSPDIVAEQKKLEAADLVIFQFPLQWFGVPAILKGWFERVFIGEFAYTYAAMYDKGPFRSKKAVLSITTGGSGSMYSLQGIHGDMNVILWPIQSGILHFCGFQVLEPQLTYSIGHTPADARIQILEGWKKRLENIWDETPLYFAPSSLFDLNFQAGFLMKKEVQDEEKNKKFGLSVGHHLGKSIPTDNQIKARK

O=c1ccc2ccccc2o1 [coumarin]
inhibition at 4.55 µM [1]: 41.8%

O=c1ccc2cc(O)c(O)cc2o1 [aesculetin]
inhibition at 4.55 µM [1]: 34.9%

O=c1cc(-c2ccc(O)c(O)c2)oc2cc(O)cc(O)c12 [luteolin]
inhibition at 4.55 µM [2]: 55%

COc1cc2ccc(=O)oc2cc1O [scopoletin]
inhibition at 4.55 µM [3]: 77.4%

O=c1ccc2ccc(O)cc2o1 [umbelliferone]
inhibition at 4.55 µM [3]: 63.5%
